# Where a name gives a salt, the structure may show the parent alone.
# Target: adenosine A2A receptor (Homo sapiens, UniProt P29274)
# Experiment: A2A receptor agonist assay, method of Murphree et al, Molecular Pharmacology 61, 455-462 (2002)
# Assay type: binding
# Settings: method of L. J. Murphree et al
# From the text: Compounds of formula I and their pharmaceutically acceptable salts are useful as pharmaceuticals. In particular, they activate the adenosine A2A receptor, i.e. they act as A2A receptor agonists.
# Sequence of adenosine A2A receptor (P29274 whole entry): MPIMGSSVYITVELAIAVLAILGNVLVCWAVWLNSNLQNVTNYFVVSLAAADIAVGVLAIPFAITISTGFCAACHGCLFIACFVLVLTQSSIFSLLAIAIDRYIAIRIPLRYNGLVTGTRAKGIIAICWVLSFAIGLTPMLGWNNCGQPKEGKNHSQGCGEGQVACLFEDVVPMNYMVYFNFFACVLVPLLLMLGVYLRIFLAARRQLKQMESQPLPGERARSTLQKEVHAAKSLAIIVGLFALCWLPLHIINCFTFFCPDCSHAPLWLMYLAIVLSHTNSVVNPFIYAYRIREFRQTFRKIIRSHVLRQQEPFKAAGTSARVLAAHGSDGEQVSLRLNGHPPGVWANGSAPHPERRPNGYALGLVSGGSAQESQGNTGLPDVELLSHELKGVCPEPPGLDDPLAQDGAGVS
row,Ki,Structure (SMILES)
1,8 nM,"CCCCC#Cc1nc(NCC(c2ccccc2)c2ccccc2)c2ncn([C@@H]3C[C@H](NC(=O)CC)[C@@H](O)[C@H]3O)c2n1 [Example 6, N-{(1S,2R,3S,4R)-4-[6-(2,2-Diphenyl-ethylamino)-2-hex-1-ynyl-purin-9-yl]-2,3-dihydroxy-cyclopentyl}-propionamide]"
2,3 nM,"CCC(=O)N[C@H]1C[C@@H](n2cnc3c(NCC(c4ccccc4)c4ccccc4)nc(N4CC[C@@H](NC(=O)N[C@@H]5CCNC5)C4)nc32)[C@H](O)[C@@H]1O [Example 39, N-((1S,2R,3S,4R)-4-{6-(2,2-Diphenyl-ethylamino)-2-[(R)-3-((R)-3-pyrrolidin-3-ylureido)-pyrrolidin-1-yl]-purin-9-yl}-2,3-dihydroxy-cyclopentyl)-propionamide trifluoroacetate]"
3,2 nM,"CCC(=O)N[C@H]1C[C@@H](n2cnc3c(NCC(c4ccccc4)c4ccccc4)nc(C(=O)NCCNC(=O)N[C@H]4CCN(c5ccccn5)C4)nc32)[C@H](O)[C@@H]1O [Example 47, 9-((1R,2S,3R,4S)-2,3-Dihydroxy-4-propionylamino-cyclopentyl)-6-(2,2-diphenyl-ethylamino)-9H-purine-2-carboxylic acid {2-[3-((S)-1-pyridin-2-yl-pyrrolidin-3-yl)-ureido]-ethyl}-amide trifluoroacetate]"

# Continued, compound first:
row,Structure (SMILES),Ki
1,"CCC(=O)N[C@H]1C[C@@H](n2cnc3c(N)nc(NCCc4ccccc4)nc32)[C@H](O)[C@@H]1O [Example 2, N-[(1S,2R,3S,4R)-4-(6-Amino-2-phenethylamino-purin-9-yl)-2,3-dihydroxy-cvclcpentyl]-propionamide trifluoroacetate]",18 nM
2,"NC1CCN(c2nc(NCC(c3ccccc3)c3ccccc3)c3ncn(C4CC(NC(=O)C5CCC5)C(O)C4O)c3n2)C1 [Example 33, Cyclobutanecarboxylic acid {(1S,2R,3S,4R)-4-[2-((R)-3-amino-pyrrolidin-1-yl)-6-(2,2-diphenyl-ethylamino-3)-purin-9-yl]-2,3-dihydroxy-cyclopentyl}-amide]",52 nM
3,"CCC(=O)N[C@H]1C[C@@H](n2cnc3c(NCC(c4ccccc4)c4ccccc4)nc(C(=O)NCCNC(=O)NC4CCN(c5ccccn5)CC4)nc32)[C@H](O)[C@@H]1O [Example 38, 9-((1R,2S,3R,4S)-2,3-Dihydroxy-4-propionylamino-cyclopentyl)-6-(2,2-diphenyl-ethylamino)-9H-purine-2-carboxylic acid {2-[3-(3,4,5,6-tetrahydro-2H-[1,2]bipyridinyl-4-yl)ureido]-ethyl}-amide]",2 nM
4,"CCC(=O)N[C@H]1C[C@@H](n2cnc3c(NCCC(c4ccccc4)c4ccccc4)nc(NCCc4cn(CC)cn4)nc32)[C@H](O)[C@@H]1O [Example 61, N-((1S,2R,3S,4R)-4-{6-(3,3-diphenyl-propyl-amino)-2-[2-(1-ethyl-1H-imidazol-4-yl)-ethylamino]-purin-9-yl-2,3-dihydroxy-cyclopentyl}-propionamide trifluoroacetate]",9 nM
